# Source: ChEMBL document CHEMBL1140816, “Syntheses of tetrahydrothiophenes and tetrahydrofurans and studies of their derivatives as melanocortin-4 receptor ligands” (Bioorg Med Chem Lett, 2008)
# Biological target: T1, Melanocortin receptor 4 (Homo sapiens, UniProt P32245)
# Test: Antagonist activity at human MC4R assessed as inhibition of alpha MSH-stimulated cAMP release by cell based assay
# Type: functional
# T1 sequence (P32245 whole entry): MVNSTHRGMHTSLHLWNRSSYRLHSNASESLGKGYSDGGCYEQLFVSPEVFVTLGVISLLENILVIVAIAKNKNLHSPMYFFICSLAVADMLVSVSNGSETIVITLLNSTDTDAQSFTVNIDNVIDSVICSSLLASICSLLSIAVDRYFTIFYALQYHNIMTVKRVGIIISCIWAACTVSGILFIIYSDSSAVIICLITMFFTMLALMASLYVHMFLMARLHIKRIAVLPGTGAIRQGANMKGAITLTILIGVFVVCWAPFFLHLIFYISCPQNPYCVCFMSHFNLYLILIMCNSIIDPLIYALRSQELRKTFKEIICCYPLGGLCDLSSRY
row,IC50 [nM],SMILES
1,690,CC(C)C[C@H](N)c1cc(C(F)(F)F)ccc1N1CCN(C(=O)[C@H]2CS(=O)(=O)C[C@@H]2c2ccc(Cl)cc2)CC1
2,530,Cc1ccc(N2CCN(C(=O)[C@@H]3OCC[C@@H]3c3ccc(Cl)cc3)CC2)c([C@@H](NC(=O)CCN(C)C)C(C)C)c1

# Biological target: T1, Melanocortin receptor 4
# Test: Displacement of [125I]NDP-MSH from human MC4R expressed in HEK293 cells
# Type: cell-based
row,Ki [nM],SMILES
1,590,Cc1ccc(N2CCN(C(=O)[C@@H]3CCO[C@@H]3c3ccc(Cl)cc3)CC2)c([C@@H](N)C(C)C)c1
2,130,CC(C)C[C@H](NC(=O)CCN(C)C)c1cc(C(F)(F)F)ccc1N1CCN(C(=O)[C@H]2CSC[C@@H]2c2ccc(Cl)cc2)CC1
3,170,CC(C)C[C@H](NC(=O)CCN(C)C)c1cc(C(F)(F)F)ccc1N1CCN(C(=O)[C@H]2CS(=O)(=O)C[C@@H]2c2ccc(Cl)cc2)CC1
4,120,Cc1ccc(N2CCN(C(=O)[C@@H]3CCO[C@@H]3c3ccc(Cl)cc3)CC2)c([C@@H](NC(=O)CCN(C)C)C(C)C)c1
5,480,CC(C)[C@H](NC(=O)CCN(C)C)c1cccc(F)c1N1CCN(C(=O)[C@@H]2CCO[C@@H]2c2ccc(Cl)cc2)CC1
6,10,Cc1ccc(N2CCN(C(=O)[C@@H]3OCC[C@@H]3c3ccc(Cl)cc3)CC2)c([C@@H](NC(=O)CCN(C)C)C(C)C)c1
7,200,CC(C)C[C@H](NC(=O)CCN(C)C)c1cc(C(F)(F)F)ccc1N1CCN(C(=O)[C@H]2CCO[C@@H]2c2ccc(Cl)cc2)CC1
8,74,CC(C)C[C@H](NC(=O)CCN(C)C)c1cc(Cl)ccc1N1CCN(C(=O)[C@H]2CCO[C@@H]2c2ccc(Cl)cc2)CC1
9,380,CC(C)[C@H](NC(=O)CCN(C)C)c1cccc(F)c1N1CCN(C(=O)[C@H]2CS(=O)(=O)C[C@@H]2c2ccc(Cl)cc2)CC1
10,37,CC(C)[C@H](NC(=O)CCN(C)C)c1cccc(F)c1N1CCN(C(=O)[C@@H]2CS(=O)(=O)C[C@H]2c2ccc(Cl)cc2)CC1
11,87,CC(C)C[C@H](NC(=O)CCN(C)C)c1cc(Cl)ccc1N1CCN(C(=O)[C@@H]2CCO[C@@H]2c2ccc(Cl)cc2)CC1
12,40,CC(C)[C@H](NC(=O)CCN(C)C)c1cccc(F)c1N1CCN(C(=O)C2COCC2c2ccc(Cl)cc2)CC1 (some centres not stated)
13,28,CC(C)[C@H](NC(=O)CCN(C)C)c1cccc(F)c1N1CCN(C(=O)[C@@H]2COC[C@@H]2c2ccc(Cl)cc2)CC1
14,30,CC(C)[C@H](NC(=O)CCN(C)C)c1cccc(F)c1N1CCN(C(=O)[C@H]2COC[C@@H]2c2ccc(Cl)cc2)CC1
15,410,Cc1ccc(N2CCN(C(=O)[C@H]3CCO[C@@H]3c3ccc(Cl)cc3)CC2)c([C@@H](N)C(C)C)c1
16,230,CC(C)C[C@H](NC(=O)CCN(C)C)c1cc(C(F)(F)F)ccc1N1CCN(C(=O)[C@H]2C[S+]([O-])C[C@@H]2c2ccc(Cl)cc2)CC1 (some centres not stated)
17,71,CC(C)C[C@H](NC(=O)CCN(C)C)c1cc(C(F)(F)F)ccc1N1CCN(C(=O)C2COCC2c2ccc(Cl)cc2)CC1 (some centres not stated)
18,290,CC(C)C[C@H](NC(=O)CCN(C)C)c1cc(C(F)(F)F)ccc1N1CCN(C(=O)C2C(=O)OCC2c2ccc(Cl)cc2)CC1 (some centres not stated)
19,43,Cc1ccc(N2CCN(C(=O)[C@H]3OCC[C@@H]3c3ccc(Cl)cc3)CC2)c([C@@H](NC(=O)CCN(C)C)C(C)C)c1

# Further lines, the compound ahead of its results:
row,SMILES,Ki [nM]
1,CC(C)C[C@H](NC(=O)[C@@H](C)N)c1cc(C(F)(F)F)ccc1N1CCN(C(=O)[C@H]2CSC[C@@H]2c2ccc(Cl)cc2)CC1,130
2,CNCC(=O)N[C@@H](CC(C)C)c1cc(C(F)(F)F)ccc1N1CCN(C(=O)[C@H]2CSC[C@@H]2c2ccc(Cl)cc2)CC1,250
3,CNCCC(=O)N[C@@H](CC(C)C)c1cc(C(F)(F)F)ccc1N1CCN(C(=O)[C@H]2CS(=O)(=O)C[C@@H]2c2ccc(Cl)cc2)CC1,190
4,CC(C)C[C@H](N)c1cc(C(F)(F)F)ccc1N1CCN(C(=O)[C@H]2CS(=O)(=O)C[C@@H]2c2ccc(Cl)cc2)CC1,38
5,CC(C)[C@H](N)c1cccc(F)c1N1CCN(C(=O)[C@@H]2CCO[C@@H]2c2ccc(Cl)cc2)CC1,2100
6,CC(C)C[C@H](N)c1cc(C(F)(F)F)ccc1N1CCN(C(=O)C2COCC2c2ccc(Cl)cc2)CC1 (some centres not stated),280
7,CNCC(=O)N[C@@H](CC(C)C)c1cc(C(F)(F)F)ccc1N1CCN(C(=O)[C@H]2CS(=O)(=O)C[C@@H]2c2ccc(Cl)cc2)CC1,180
8,CC(C)[C@H](N)c1cccc(F)c1N1CCN(C(=O)C2COCC2c2ccc(Cl)cc2)CC1 (some centres not stated),790
9,CC(C)C[C@H](N)c1cc(C(F)(F)F)ccc1N1CCN(C(=O)C2C(=O)OCC2c2ccc(Cl)cc2)CC1 (some centres not stated),260
10,CC(C)C[C@H](NC(=O)[C@@H](C)N)c1cc(C(F)(F)F)ccc1N1CCN(C(=O)[C@H]2CS(=O)(=O)C[C@@H]2c2ccc(Cl)cc2)CC1,100
11,CC(C)C[C@H](NC(=O)CCN)c1cc(C(F)(F)F)ccc1N1CCN(C(=O)C2CC(=O)OC2c2ccc(Cl)cc2)CC1 (some centres not stated),110
12,CNCCC(=O)N[C@@H](CC(C)C)c1cc(C(F)(F)F)ccc1N1CCN(C(=O)[C@H]2CSC[C@@H]2c2ccc(Cl)cc2)CC1,170
13,CC(C)C[C@H](N)c1cc(Cl)ccc1N1CCN(C(=O)[C@H]2CCO[C@@H]2c2ccc(Cl)cc2)CC1,280
14,CC(C)C[C@H](NC(=O)CCN)c1cc(C(F)(F)F)ccc1N1CCN(C(=O)C2C(=O)OCC2c2ccc(Cl)cc2)CC1 (some centres not stated),180
15,CC(C)C[C@H](N)c1cc(C(F)(F)F)ccc1N1CCN(C(=O)[C@H]2CCO[C@@H]2c2ccc(Cl)cc2)CC1,330
16,CC(C)C[C@H](N)c1cc(C(F)(F)F)ccc1N1CCN(C(=O)[C@H]2CSC[C@@H]2c2ccc(Cl)cc2)CC1,280
17,CC(C)[C@H](N)c1cccc(F)c1N1CCN(C(=O)[C@H]2CCO[C@@H]2c2ccc(Cl)cc2)CC1,1100
18,CC(C)C[C@H](N)c1cc(C(F)(F)F)ccc1N1CCN(C(=O)[C@H]2C[S+]([O-])C[C@@H]2c2ccc(Cl)cc2)CC1 (some centres not stated),120

# Biological target: T1, Melanocortin receptor 4
# Test: Binding affinity at human MC4R
row,Ki [nM],SMILES
1,810,CC(C)C[C@H](N)c1cc(C(F)(F)F)ccc1N1CCN(C(=O)C(C)(C)Cc2ccc(Cl)cc2)CC1

# Biological target: T1, Melanocortin receptor 4
# Test: Agonist activity at MC4R
# Type: functional
row,EC50 [nM],SMILES
1,2,CC(C)(C)N1C[C@H](C(=O)N2CCC(CN3CCOC3=O)(C3CCCCC3)CC2)[C@@H](c2ccc(F)cc2F)C1

# Biological target: T1, Melanocortin receptor 4
# Test: Binding affinity at MC4R
row,IC50 [nM],SMILES
1,14,CC(C)(C)N1C[C@H](C(=O)N2CCC(CN3CCOC3=O)(C3CCCCC3)CC2)[C@@H](c2ccc(F)cc2F)C1
